± gives the uncertainty stated by the source.
Key:
Assay in all cases: CYP enzyme activity (probe substrate metabolite formation) fold change vs solvent control; higher = stronger induction of CYP activity
Details in all cases: HepaRG
CYP2D6 = CYP2D6 (UniProt P10635)
Procedure: (§1)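 Differentiated HepaRG cells were treated with 1, 5 or 10 µM of each PAH (0.5% DMSO) for 12, 24 or 48 h, then incubated for 3 h at 37 °C with a cocktail of isoform-specific CYP substrates (phenacetin for CYP1A2, bupropion for CYP2B6, amodiaquine for CYP2C8, tolbutamide for CYP2C9, mephenytoin for CYP2C19, propafenone for CYP2D6, atorvastatin for CYP3A4). Metabolite formation was quantified by LC-MS as a measure of CYP activity and reported as fold change over solvent control (mean ± SD, n=3). Values below the LLOQ were set to half the LLOQ.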

CYP2C9 = CYP2C9 (UniProt P11712)
Sequence of CYP2C9 (P11712 whole entry): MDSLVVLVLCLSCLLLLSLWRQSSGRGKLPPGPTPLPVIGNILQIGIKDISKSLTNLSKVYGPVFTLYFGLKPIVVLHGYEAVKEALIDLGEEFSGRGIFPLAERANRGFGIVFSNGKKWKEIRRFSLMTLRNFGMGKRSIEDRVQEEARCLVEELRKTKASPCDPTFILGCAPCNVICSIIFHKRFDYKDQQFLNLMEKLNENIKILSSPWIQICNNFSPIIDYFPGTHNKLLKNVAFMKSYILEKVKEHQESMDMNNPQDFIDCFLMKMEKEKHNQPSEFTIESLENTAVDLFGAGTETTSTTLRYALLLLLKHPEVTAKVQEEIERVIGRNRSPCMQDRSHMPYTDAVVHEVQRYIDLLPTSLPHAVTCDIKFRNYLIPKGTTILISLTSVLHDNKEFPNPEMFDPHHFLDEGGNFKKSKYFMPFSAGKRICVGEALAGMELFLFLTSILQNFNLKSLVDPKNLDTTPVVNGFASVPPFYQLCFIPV
Procedure: as §1

CYP3A4 = CYP3A4 (UniProt P08684)
Sequence of CYP3A4 (P08684 whole entry): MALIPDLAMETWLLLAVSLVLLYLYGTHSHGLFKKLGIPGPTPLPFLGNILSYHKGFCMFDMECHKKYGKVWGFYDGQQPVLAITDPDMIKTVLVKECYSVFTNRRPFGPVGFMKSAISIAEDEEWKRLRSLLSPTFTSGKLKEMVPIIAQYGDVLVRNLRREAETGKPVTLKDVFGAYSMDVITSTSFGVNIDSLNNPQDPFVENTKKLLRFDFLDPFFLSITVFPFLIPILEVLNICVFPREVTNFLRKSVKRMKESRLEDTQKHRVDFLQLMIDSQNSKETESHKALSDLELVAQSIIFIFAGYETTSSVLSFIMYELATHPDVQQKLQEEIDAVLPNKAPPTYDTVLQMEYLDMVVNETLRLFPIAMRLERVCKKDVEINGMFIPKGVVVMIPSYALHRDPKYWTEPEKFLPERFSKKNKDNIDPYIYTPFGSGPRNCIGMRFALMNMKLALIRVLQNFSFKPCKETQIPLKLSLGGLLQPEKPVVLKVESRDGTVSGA
Procedure: as §1

CYP1A2 = target: T1, CYP1A2 (UniProt P05177)
T1 sequence (whole entry): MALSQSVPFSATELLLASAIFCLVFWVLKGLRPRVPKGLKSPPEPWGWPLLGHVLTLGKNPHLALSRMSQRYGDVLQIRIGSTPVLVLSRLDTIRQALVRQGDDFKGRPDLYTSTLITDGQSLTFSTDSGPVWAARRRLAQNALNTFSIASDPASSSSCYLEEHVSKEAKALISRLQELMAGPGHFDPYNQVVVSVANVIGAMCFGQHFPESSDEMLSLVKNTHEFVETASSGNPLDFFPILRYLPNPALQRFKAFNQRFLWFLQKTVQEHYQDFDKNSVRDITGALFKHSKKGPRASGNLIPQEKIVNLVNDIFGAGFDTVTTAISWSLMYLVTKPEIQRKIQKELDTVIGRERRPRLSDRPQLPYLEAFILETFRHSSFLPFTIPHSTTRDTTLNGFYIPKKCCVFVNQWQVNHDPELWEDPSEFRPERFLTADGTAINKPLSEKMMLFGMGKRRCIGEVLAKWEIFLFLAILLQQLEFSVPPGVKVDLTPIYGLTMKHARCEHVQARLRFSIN
Procedure: as §1

CYP2C8 = target: T2, CYP2C8 (UniProt P10632)
T2 sequence (whole entry): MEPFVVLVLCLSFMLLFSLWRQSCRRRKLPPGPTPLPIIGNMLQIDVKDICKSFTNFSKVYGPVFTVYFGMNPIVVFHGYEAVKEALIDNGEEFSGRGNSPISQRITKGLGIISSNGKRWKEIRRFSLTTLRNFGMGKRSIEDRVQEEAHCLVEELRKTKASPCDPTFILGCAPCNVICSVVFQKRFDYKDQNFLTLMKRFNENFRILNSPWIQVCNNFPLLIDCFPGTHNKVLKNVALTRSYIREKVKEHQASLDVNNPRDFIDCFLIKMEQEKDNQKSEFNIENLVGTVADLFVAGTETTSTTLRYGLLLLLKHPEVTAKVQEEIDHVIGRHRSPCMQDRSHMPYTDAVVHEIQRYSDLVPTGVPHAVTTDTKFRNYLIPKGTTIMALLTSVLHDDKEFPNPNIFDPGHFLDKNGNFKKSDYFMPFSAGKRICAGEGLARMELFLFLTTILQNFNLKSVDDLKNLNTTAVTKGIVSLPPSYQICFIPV
Procedure: as §1

CYP2B6 = target: T3, CYP2B6 (UniProt P20813)
T3 sequence (whole entry): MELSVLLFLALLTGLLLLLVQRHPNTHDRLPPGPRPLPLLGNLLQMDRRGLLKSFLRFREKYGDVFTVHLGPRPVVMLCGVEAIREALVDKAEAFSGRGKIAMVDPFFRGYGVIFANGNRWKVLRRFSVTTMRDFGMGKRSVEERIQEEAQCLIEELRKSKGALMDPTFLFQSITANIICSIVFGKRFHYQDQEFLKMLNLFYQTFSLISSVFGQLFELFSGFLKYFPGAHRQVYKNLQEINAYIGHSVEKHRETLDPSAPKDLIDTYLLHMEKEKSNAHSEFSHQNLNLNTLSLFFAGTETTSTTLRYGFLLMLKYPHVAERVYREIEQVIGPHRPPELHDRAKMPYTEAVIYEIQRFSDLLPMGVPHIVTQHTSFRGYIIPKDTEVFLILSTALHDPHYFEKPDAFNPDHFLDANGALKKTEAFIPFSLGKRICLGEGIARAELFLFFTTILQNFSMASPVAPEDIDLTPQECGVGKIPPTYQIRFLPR
Procedure: as §1

CYP2C19 = CYP2C19 (UniProt P33261)
Sequence of CYP2C19 (P33261 whole entry): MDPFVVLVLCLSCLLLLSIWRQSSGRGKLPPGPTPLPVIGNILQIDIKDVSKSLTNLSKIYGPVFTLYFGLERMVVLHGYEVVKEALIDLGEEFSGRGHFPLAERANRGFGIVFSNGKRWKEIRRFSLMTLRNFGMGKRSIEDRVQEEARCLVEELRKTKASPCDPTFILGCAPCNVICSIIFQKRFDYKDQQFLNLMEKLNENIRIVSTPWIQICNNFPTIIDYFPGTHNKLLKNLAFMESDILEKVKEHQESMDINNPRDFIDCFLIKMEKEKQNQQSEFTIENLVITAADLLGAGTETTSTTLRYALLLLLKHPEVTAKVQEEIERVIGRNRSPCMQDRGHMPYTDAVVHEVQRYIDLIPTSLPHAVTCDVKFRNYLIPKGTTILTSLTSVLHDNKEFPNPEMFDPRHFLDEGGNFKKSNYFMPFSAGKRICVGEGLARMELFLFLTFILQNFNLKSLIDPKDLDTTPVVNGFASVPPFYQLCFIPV
Procedure: as §1

Sequence of CYP2D6 (P10635 whole entry, canonical isoform): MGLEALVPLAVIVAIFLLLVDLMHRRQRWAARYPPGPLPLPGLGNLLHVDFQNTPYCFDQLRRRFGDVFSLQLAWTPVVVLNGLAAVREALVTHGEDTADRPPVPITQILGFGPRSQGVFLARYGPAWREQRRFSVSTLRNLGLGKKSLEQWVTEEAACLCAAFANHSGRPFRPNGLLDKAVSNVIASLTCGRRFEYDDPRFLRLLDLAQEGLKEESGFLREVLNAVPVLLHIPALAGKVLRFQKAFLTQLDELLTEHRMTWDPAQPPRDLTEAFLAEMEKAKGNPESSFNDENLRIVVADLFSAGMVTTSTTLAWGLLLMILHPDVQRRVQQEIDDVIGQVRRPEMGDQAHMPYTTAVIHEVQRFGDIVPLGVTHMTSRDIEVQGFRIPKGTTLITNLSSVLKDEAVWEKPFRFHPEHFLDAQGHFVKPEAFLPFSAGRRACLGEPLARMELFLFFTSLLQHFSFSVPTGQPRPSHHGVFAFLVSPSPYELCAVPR

c1ccc2cc3c(ccc4ccccc43)cc2c1 [benzo[a]anthracene]
CYP enzyme activity
Details | CYP1A2 | CYP2B6 | CYP2C8 | CYP2C9 | CYP2C19 | CYP2D6 | CYP3A4
1 µM, treatment time 12 h | 1.41 | 0.781 | 0.978 | 0.88 | 0.754 | 0.865 | 0.717
1 µM, treatment time 24 h | 1.01 | 0.901 | 0.978 | 1 | 0.826 | 0.833 | 0.662
1 µM, treatment time 48 h | 0.817 | 0.683 | 1.01 | 0.927 | 0.862 | 0.696 | 0.702
5 µM, treatment time 12 h | 5.62 | 1.1 | 0.953 | 0.995 | 0.94 | 1.66 | 0.809
5 µM, treatment time 24 h | 4.68 | 1.45 | 0.973 | 1.02 | 0.934 | 1.15 | 0.844
5 µM, treatment time 48 h | 1.98 | 0.896 | 0.898 | 0.989 | 1.003 | 0.774 | 0.754
10 µM, treatment time 12 h | 9.59 | 1.11 | 0.992 | 0.949 | 0.934 | 2.55 | 0.907
10 µM, treatment time 24 h | 9.37 | 1.63 | 0.875 | 1.02 | 0.925 | 1.41 | 0.855
10 µM, treatment time 48 h | 3.86 | 0.97 | 0.792 | 0.849 | 0.882 | 0.712 | 0.702

c1ccc2c(c1)cc1ccc3cccc4ccc2c1c34 [benzo[a]pyrene]
CYP enzyme activity
Details | CYP1A2 | CYP2B6 | CYP2C8 | CYP2C9 | CYP2C19 | CYP2D6 | CYP3A4
1 µM, treatment time 12 h | 2.02 | 0.982 | 0.886 | 0.945 | 0.898 | 1.11 | 0.849
1 µM, treatment time 24 h | 1.3 | 1.14 | 0.925 | 1 | 0.895 | 0.883 | 0.812
1 µM, treatment time 48 h | 0.816 | 0.753 | 0.895 | 0.896 | 0.85 | 0.691 | 0.734
5 µM, treatment time 12 h | 7.75 | 1.22 | 0.671 | 0.85 | 0.908 | 2.43 | 1.04
5 µM, treatment time 24 h | 4.55 | 1.61 | 0.774 | 1.03 | 0.847 | 1.07 | 0.834
5 µM, treatment time 48 h | 1.04 | 0.977 | 0.686 | 0.773 | 0.855 | 0.598 | 0.678
10 µM, treatment time 12 h | 5.63 | 0.881 | 0.464 | 0.67 | 0.761 | 2.24 | 1.05
10 µM, treatment time 24 h | 7.76 | 1.52 | 0.66 | 0.872 | 0.835 | 1.34 | 0.762
10 µM, treatment time 48 h | 1.24 | 0.954 | 0.415 | 0.654 | 0.661 | 0.51 | 0.599

c1ccc2c(c1)-c1cccc3c1c-2cc1ccccc13 [benzo[b]fluoranthene]
CYP enzyme activity
Details | CYP1A2 | CYP2B6 | CYP2C8 | CYP2C9 | CYP2C19 | CYP2D6 | CYP3A4
1 µM, treatment time 12 h | 2.68 | 1.04 | 0.95 | 0.95 | 0.955 | 1.24 | 0.857
1 µM, treatment time 24 h | 1.78 | 1.23 | 0.906 | 0.907 | 0.885 | 0.924 | 0.751
1 µM, treatment time 48 h | 1.75 | 0.832 | 0.908 | 0.891 | 0.984 | 0.763 | 0.732
5 µM, treatment time 12 h | 3.81 | 1.29 | 0.951 | 0.978 | 1.05 | 1.38 | 0.925
5 µM, treatment time 24 h | 9.11 | 2.08 | 0.817 | 0.951 | 0.951 | 1.52 | 0.823
5 µM, treatment time 48 h | 5.4 | 1.33 | 0.717 | 0.82 | 0.976 | 0.934 | 0.732
10 µM, treatment time 12 h | 0.947 | 1.21 | 0.929 | 0.939 | 0.995 | 1.19 | 0.875
10 µM, treatment time 24 h | 13.2 | 1.71 | 0.758 | 0.842 | 0.876 | 1.87 | 0.723
10 µM, treatment time 48 h | 7.06 | 1.4 | 0.444 | 0.602 | 0.667 | 0.823 | 0.495

c1ccc2c(c1)ccc1ccc3ccccc3c12 [benzo[c]phenanthrene]
CYP enzyme activity
Details | CYP1A2 | CYP2B6 | CYP2C8 | CYP2C9 | CYP2C19 | CYP2D6 | CYP3A4
1 µM, treatment time 12 h | 1.2 | 1.02 | 0.945 | 1 | 0.916 | 0.94 | 0.867
1 µM, treatment time 24 h | 1.09 | 1.04 | 0.9596 | 0.961 | 0.911 | 0.773 | 0.843
1 µM, treatment time 48 h | 0.925 | 0.921 | 0.962 | 0.922 | 1.04 | 0.772 | 0.834
5 µM, treatment time 12 h | 1.34 | 1.31 | 0.947 | 1.02 | 1.04 | 0.992 | 0.926
5 µM, treatment time 24 h | 1.28 | 1.81 | 1.04 | 1.15 | 1.09 | 1.05 | 1.002
5 µM, treatment time 48 h | 1.28 | 2.27 | 1.09 | 1.28 | 1.19 | 1.05 | 1.13
10 µM, treatment time 12 h | 1.5 | 1.27 | 0.958 | 1.01 | 1.03 | 1.04 | 0.849
10 µM, treatment time 24 h | 1.5 | 2.02 | 1.13 | 1.103 | 1.03 | 1.13 | 0.999
10 µM, treatment time 48 h | 1.46 | 2.87 | 1.08 | 1.21 | 1.19 | 1.08 | 1.2

c1ccc2c3c(ccc2c1)-c1cccc2cccc-3c12 [benzo[j]fluoranthene]
CYP enzyme activity
Details | CYP1A2 | CYP2B6 | CYP2C8 | CYP2C9 | CYP2C19 | CYP2D6 | CYP3A4
1 µM, treatment time 12 h | 3.57 | 1.02 | 0.921 | 0.852 | 0.86 | 1.28 | 0.809
1 µM, treatment time 24 h | 2.09 | 1.27 | 0.903 | 0.88 | 0.826 | 0.87 | 0.702
1 µM, treatment time 48 h | 1.1 | 0.856 | 0.974 | 0.835 | 0.948 | 0.759 | 0.666
5 µM, treatment time 12 h | 6.59 | 1.21 | 0.894 | 0.826 | 0.97 | 1.94 | 0.883
5 µM, treatment time 24 h | 12.1 | 2.01 | 0.779 | 0.844 | 0.9 | 1.61 | 0.728
5 µM, treatment time 48 h | 4.57 | 1.32 | 0.798 | 0.734 | 0.882 | 0.711 | 0.694
10 µM, treatment time 12 h | 1.21 | 1.04 | 0.785 | 0.731 | 0.84 | 1.13 | 0.916
10 µM, treatment time 24 h | 23 | 2.03 | 0.751 | 0.771 | 0.867 | 2.94 | 0.715
10 µM, treatment time 48 h | 9.96 | 1.83 | 0.688 | 0.75 | 0.914 | 0.838 | 0.636

c1ccc2cc3c(cc2c1)-c1cccc2cccc-3c12 [benzo[k]fluoranthene]
CYP enzyme activity
Details | CYP1A2 | CYP2B6 | CYP2C8 | CYP2C9 | CYP2C19 | CYP2D6 | CYP3A4
1 µM, treatment time 12 h | 7.62 | 0.673 | 0.918 | 0.808 | 0.834 | 1.93 | 0.73
1 µM, treatment time 24 h | 15.3 | 0.763 | 0.793 | 0.744 | 0.702 | 1.9 | 0.633
1 µM, treatment time 48 h | 25.3 | 0.806 | 0.812 | 0.704 | 0.832 | 1.36 | 0.544
5 µM, treatment time 12 h | 9.06 | 0.751 | 0.875 | 0.76 | 0.854 | 2.35 | 0.89
5 µM, treatment time 24 h | 17.8 | 0.806 | 0.682 | 0.67 | 0.723 | 2.71 | 0.676
5 µM, treatment time 48 h | 27.3 | 0.574 | 0.278 | 0.396 | 0.577 | 1.62 | 0.342
10 µM, treatment time 12 h | 5.83 | 0.741 | 0.759 | 0.725 | 0.76 | 2.05 | 0.93
10 µM, treatment time 24 h | 16.9 | 0.923 | 0.625 | 0.594 | 0.754 | 2.98 | 0.732
10 µM, treatment time 48 h | 17.5 | 0.446 | 0.164 | 0.312 | 0.455 | 1.49 | 0.283

Reference: the supplement of paper PMC7796163
